The source of these data is PMC4502414, “Transforming berberine into its intestine-absorbable form by the gut microbiota” (Scientific Reports, 2015).

This series deals with rat large intestinal bacteria (RLIB). As to the kind of experiment: Conversion of BBR into dhBBR by rat large intestinal bacteria in vitro. The series is classed as in vitro ADME. As to conditions: BBR incubated with rat large intestinal bacteria. On the procedure: The method was reported previously. Briefly, colon contents from six rats were pooled, and 5 g of the sample was transferred into a flask containing the anaerobic medium (100 ml). After thorough mixing, the cultures (which contained intestinal bacteria and anaerobic medium) were pre-incubated under anaerobic conditions with a N2 atmosphere at 37 °C for 60 min. Rutin (10 μl, 1.0 mg/ml in methanol) was used as a positive reference for intestinal metabolism.
Ten microliters of BBR at different concentrations was added into the fresh human or rat intestinal bacteria cultures (990 μl), with methanol (10 μl) as the negative control. The final concentrations of BBR in the incubation system were 100, 10, and 5 μg/ml. The cultures were incubated at 37 °C for 72 h in the presence or absence of human or rat intestinal bacteria.
After termination of the reaction with acetonitrile (1 ml), 50 μl of the internal standard (tetrahydropalmatine, 2.0 mg/ml in methanol) was added into the BBR samples, which were then mixed for 30 sec and centrifuged at 7,500 g for 15 min. The supernatant was dried under nitrogen flow at room temperature, and the residue was dissolved in 100 μl of methanol and centrifuged at 7,500 g for 15 min. The metabolites were analyzed by LC/MS^n-IT-TOF using a previously reported method. […]

As to `COc1ccc2c(c1OC)CN1CCc3cc4c(cc3C1=C2)OCO4` [dhBBR, dihydroberberine], the “incubation time until dhBBR became detectable” value is no more than 24 h.
